Data set [1] in a line: Cytotoxicity in human U937 cells assessed as reduction in cell viability incubated for 72 hrs by MTT assay. It counts as cell-based, U-937. To be noted: read-out: LC50.
The test system of data set [2] is Leishmania panamensis. Kind of data set: Antileishmanial activity against GFP-tagged Leishmania panamensis MHOM/CO/87/UA140 intracellular amastigotes infected in human U937 cells incubated for 72 hrs by flow cytometry. It counts as functional, organism-based. To be noted: MHOM/CO/87/UA140, U-937, 72 h. (A flow cytometer gives signals particle by particle.)
The subject of data set [3] is Trypanosoma cruzi. Nature of the data set: Antitrypanosomal activity against Trypanosoma cruzi Tulahuen intracellular amastigotes transfected with beta-galactosidase infected in human U937 cells incubated for 72 hrs by spectrophotometry. It counts as functional, organism-based. To be noted: U-937, 72 h.
Data set [4] can be described thus: Selectivity index, ratio of LC50 for cytotoxicity in human U937 cells to EC50 for antitrypanosomal activity against Trypanosoma cruzi Tulahuen intracellular amastigotes transfected with beta-galactosidase infected in human U937 cells. It counts as toxicity, cell-based.
Data set [5] in a line: Selectivity index, ratio of LC50 for cytotoxicity in human U937 cells to EC50 for antileishmanial activity against GFP-tagged Leishmania panamensis MHOM/CO/87/UA140 intracellular amastigotes infected in human U937 cells. It counts as toxicity, cell-based.
For data set [6], the system named is Trypanosoma cruzi. Nature of the data set: Antitrypanosomal activity against Trypanosoma cruzi. It counts as functional, organism-based.
Data set [7] can be described thus: Cytotoxicity in human U937 cells. It counts as cell-based, U-937. To be noted: read-out: LC50 (the source's name).
In data set [8] the test system is Leishmania panamensis. Nature of the data set: Antileishmanial activity against GFP-tagged Leishmania panamensis MHOM/CO/87/UA140 amastigotes infected in human U937 cells incubated for 72 hrs by flow cytometry. It counts as functional, organism-based. Conditions: MHOM/CO/87/UA140, U-937, 72 h.
Another data set has as its system Leishmania major. Nature of the data set: Antileishmanial activity against Leishmania major promastigotes. It counts as functional, organism-based.
Data set [9] has as its system Leishmania panamensis. Nature of the data set: Antileishmanial activity against Leishmania panamensis axenic amastigotes. It counts as functional, organism-based.
For another data set, the system named is Trypanosoma brucei. Nature of the data set: Antitrypanosomal activity against Trypanosoma brucei bloodstream forms. It counts as functional.

The record followed here is ChEMBL document CHEMBL4130489, “Triclosan-caffeic acid hybrids: Synthesis, leishmanicidal, trypanocidal and cytotoxic activities” (Eur J Med Chem, 2017).

The structures appear in SMILES notation. Converted amounts (≈) assume the structure as drawn. Where only a bound is given, the exact number is not on record here.

On to `COc1ccc(/C=C/C(=O)OCCCCCCCCCOc2cc(Cl)ccc2Oc2ccc(Cl)cc2Cl)cc1OC`, for which the CC50 at 72 h in [1] was determined as 107 µM. Further, the results for the EC50 in the data set with Leishmania panamensis [2] and in the data set on Trypanosoma cruzi [3] (read-out: EC50) were 48.5 µM and 33 µM, respectively. Moreover, the selectivity ratio in data set [4] was determined as 3.24; in data set [5], 2.21.
In the same order, the values of `COc1ccc(/C=C/C(=O)OCCCOc2cc(Cl)ccc2Oc2ccc(Cl)cc2Cl)cc1OC` are > 372 µM, 38.1 µM, > 37.2 µM, < 10 and > 9.77.
Consider `O=C(/C=C/c1ccc(O)c(O)c1)O[C@@H]1[C@H](O)C[C@@](O)(C(=O)O)C[C@H]1OC(=O)/C=C/c1ccc(O)c(O)c1`, for which the concentration for half-maximal inhibition (IC50) (as a rule, the concentration that inhibits the measured activity by half) in the data set on Trypanosoma cruzi [6] is 286 µM.
As to `COc1ccc(CCC(=O)OCCCOc2cc(Cl)ccc2Oc2ccc(Cl)cc2Cl)cc1OC`, the CC50 at 72 h in data set [1] was 250 µM. For the same compound, the values for the EC50 with Leishmania panamensis [2] and in the data set on Trypanosoma cruzi [3] (read-out: EC50) were 40.2 µM and 33.3 µM, respectively. The selectivity ratio in data set [4] came to 7.49; in [5] it was 6.2.
With `C[C@@H]1[C@H](O)[C@@H](C)/C=C/C=C/C=C/C=C/C=C/C=C/C=C/[C@H](O[C@@H]2O[C@H](C)[C@@H](O)[C@H](N)[C@@H]2O)C[C@@H]2O[C@](O)(C[C@@H](O)C[C@@H](O)[C@H](O)CC[C@@H](O)C[C@@H](O)CC(=O)O[C@H]1C)C[C@H](O)[C@H]2C(=O)O` [AMPHOTERICIN B], the selectivity ratio in data set [5] is 842.
Regarding `O=C(Cn1ccnc1[N+](=O)[O-])NCc1ccccc1` [BENZNIDAZOLE], the EC50 (in general, the concentration at which the effect is half-maximal) in the data set on Trypanosoma cruzi [3] turned out to be 40.3 µM. For the same compound, in [4], the selectivity ratio is 17.
As for `COc1ccc(/C=C/C(=O)c2ccc(OCCCOc3cc(Cl)ccc3Oc3ccc(Cl)cc3Cl)cc2)cc1OC`, the CC50 in data set [7] is > 200 µg/mL. The compound also displayed an EC50 in the data set with Leishmania panamensis [8] of 9.4 µg/mL (≈ 15.3 µM).
For the compound `CC1(C)C2CCC1(C)[C@H](OC(=O)/C=C/c1ccc(O)c(O)c1)C2` (some centres not stated), in the data set with Leishmania major, the IC50 was determined as 48.8 µM.
`COc1ccc(/C=C/C(=O)c2ccc(OCCCCOc3cc(Cl)ccc3Oc3ccc(Cl)cc3Cl)cc2)cc1OC`: the CC50 in data set [7] is > 200 µg/mL. In addition, it took 10.2 µg/mL (≈ 16.2 µM) to reach a half-maximal effect in the data set with Leishmania panamensis [8] (EC50).
For the compound `O=C(/C=C/c1ccc(O)c(O)c1)OCCCCCCCCCOc1cc(Cl)ccc1Oc1ccc(Cl)cc1Cl`, in data set [1], the CC50 at 72 h came out at 3.62 µM. Moreover, the EC50 with Leishmania panamensis [2] stood at 30.2 µM; with Trypanosoma cruzi [3] (read-out: EC50), 41.3 µM. Besides, the selectivity ratio in [4] was found to be 0.09; in [5], 0.12.
For the compound `O=C(/C=C/c1ccc(O)c(O)c1)OCCCCCCCCCCCCOc1cc(Cl)ccc1Oc1ccc(Cl)cc1Cl`, in data set [1], the CC50 at 72 h was 174 µM. The EC50 in the data set on Leishmania panamensis [2] stood at 42.6 µM; in the data set on Trypanosoma cruzi [3] (read-out: EC50), 34.2 µM. The values for the selectivity ratio in data set [4] and in [5] were 5.08 and 4.08, respectively.
With `COc1ccc(/C=C/C(=O)OCCCCOc2cc(Cl)ccc2Oc2ccc(Cl)cc2Cl)cc1OC`, in [1], the CC50 at 72 h turned out to be 73.4 µM. Moreover, the results for the EC50 in the data set on Leishmania panamensis [2] and with Trypanosoma cruzi [3] (read-out: EC50) were 53.2 µM and 42.8 µM, respectively. Moreover, the selectivity ratio in data set [4] is 1.72; in data set [5] it was 1.38.
Turning to `O=C(/C=C/c1ccc(O)c(O)c1)OCCCCOc1cc(Cl)ccc1Oc1ccc(Cl)cc1Cl`, the CC50 at 72 h in [1] stood at 12 µM. The EC50 was found to be 3.82 µM in the data set on Leishmania panamensis [2] and 8.25 µM in the data set on Trypanosoma cruzi [3] (read-out: EC50). Besides, the selectivity ratio worked out at 1.46 in data set [4] and 3.16 in data set [5].
The like results for `O=C(O)/C=C/c1ccc(O)c(O)c1` [CAFFEIC ACID] were, in that order, 1110 µM, 1100 µM, 157 µM, > 7.07 and > 1.
Regarding `O=C(/C=C/c1ccc(O)c(O)c1)OCCCCCOc1cc(Cl)ccc1Oc1ccc(Cl)cc1Cl`, the CC50 at 72 h in [1] was 8.18 µM. Besides, the figures for the EC50 in the data set with Leishmania panamensis [2] and with Trypanosoma cruzi [3] (read-out: EC50) were 15.3 µM and 29.7 µM, respectively. Further, the values for the selectivity ratio in data set [4] and in data set [5] were 0.28 and 0.53, respectively.
For the compound `CCCCCCCCOC(=O)/C=C/c1ccc(O)c(O)c1`, in the data set on Leishmania panamensis [9], it took 0.67 µM to reach a half-maximal effect (EC50).
On to `COc1ccc(/C=C/C(=O)OCCCCCCCOc2cc(Cl)ccc2Oc2ccc(Cl)cc2Cl)cc1OC`, for which the CC50 at 72 h in data set [1] is 337 µM. The results for the EC50 with Leishmania panamensis [2] and with Trypanosoma cruzi [3] (read-out: EC50) were 99 µM and 27.4 µM, respectively. Besides, the selectivity ratio in data set [4] is > 12.3; in data set [5], > 3.4.
Turning to `COc1ccc(/C=C/C(=O)c2ccc(OCCCCCOc3cc(Cl)ccc3Oc3ccc(Cl)cc3Cl)cc2)cc1OC`, in data set [7], the CC50 was > 200 µg/mL. The compound further yielded an EC50 with Leishmania panamensis [8] of 13.5 µg/mL (≈ 21 µM).
For the compound `O=C(/C=C/c1ccc(O)c(O)c1)OCCCCCCCOc1cc(Cl)ccc1Oc1ccc(Cl)cc1Cl`, the CC50 at 72 h in data set [1] worked out at 20 µM. In addition, the EC50 in the data set with Leishmania panamensis [2] stood at 11.7 µM; in the data set on Trypanosoma cruzi [3] (read-out: EC50) it was 8.69 µM. In addition, the selectivity ratio in data set [4] was determined as 2.29; in data set [5], 1.72.
`Oc1cc(Cl)ccc1Oc1ccc(Cl)cc1Cl` [TRICLOSAN]: the CC50 at 72 h in data set [1] came out at […]. The EC50 in the data set on Trypanosoma cruzi [3] (read-out: EC50) was 49 µM. The selectivity ratio was […] in data set [4] and […] in data set [5].
On to `O=C(/C=C/c1ccc(O)c(O)c1)OCCCCCCCCOc1cc(Cl)ccc1Oc1ccc(Cl)cc1Cl`, for which, in data set [1], the CC50 at 72 h stood at 40.2 µM. For the same compound, the EC50 worked out at 12.9 µM in the data set with Leishmania panamensis [2] and 18.4 µM with Trypanosoma cruzi [3] (read-out: EC50). The selectivity ratio in [4] came to 2.19; in data set [5], 3.11.
In the same order, the values of `O=C(/C=C/c1ccc(O)c(O)c1)OCCCOc1cc(Cl)ccc1Oc1ccc(Cl)cc1Cl` are > 392 µM, 24.3 µM, 52.4 µM, > 7.48 and > 16.1.
Take `CC(C)CCOC(=O)/C=C/c1ccc(O)c(O)c1`: the MIC (usually the lowest concentration found to suppress growth) in the data set with Trypanosoma brucei worked out at 0.31 µg/mL (≈ 1.24 µM).
